The values that follow come from US20120078529A1, “DETERMINING THE SEVERITY OF 5-FLUOROURACIL OVERDOSE” (WELLSTAT THERAPEUTICS CORPORATION, priority 2009, published 2012).

“Also recorded” adds a separate entry of the source. Read-outs that look alike come from different tables or passages of the source.

The test system of data set [1] is 5FU overdose. Kind of data set: Patients overdosed with 5FU treated with vistonuridine as an antidote. Format: in vivo, human. Here is the method: Seventeen patients overdosed with 5FU have been treated with vistonuridine as an antidote. Patients received vistonuridine (10 g q6h for 20 doses) beginning 8 to 96 hours after overdose. Data from 13 patients with similar 5FU overdoses provide the time course and outcomes for patients receiving available supportive care without vistonuridine. A severity score, integrating dose and infusion rate, was calculated for all the patients, and this tool could be used by healthcare workers to determine the expected severity and outcome of a 5FU overdose.
Wellstat Therapeutics Corporation was contacted by physicians of patients who had received 5FU overdoses, most due to infusion pump errors. Emergency Investigational New Drug approvals (INDs) were obtained from the U.S. Food and Drug Administration (FDA), and vistonuridine was promptly shipped or couriered to the clinics. Patients received vistonuridine beginning 8 to 96 hours after 5FU.

For the next data set, the system named is lethal 5FU overdose. Kind of data set: Vistonuridine antidote after lethal 5FU overdose in mice. The data set is classed as in vivo. As to the method:
Uridine is a specific pharmacologic antidote for 5FU poisoning. It reduces 5FU toxicity when taken up prior to the onset of cell death. However uridine has poor oral bioavailability (about 7%). Vistonuridine (chemical name: 2′,3′,5′-tri-O-acetyluridine) is an oral prodrug of uridine. […] Vistonuridine is rapidly converted to circulating uridine by deacetylation (FIG. 2). It is an effective antidote against 5FU poisoning when administered up to 48 hours or more after a lethal 5FU overdose in mice, and up to 96 hours or more in humans. (See Example 1 below).

For data set [2] the following is noted: cited from earlier work.
Data set [3] concerns 5FU overdose. Conditions: cited from earlier work.
The nature of data set [4]: 5-fluorouracil toxicity severity score calculation. Also noted: species or system human. Conditions: base ten logarithms, dose in mg, administration rate in mg/hr. The source says: This invention provides a method of determining a 5-fluorouracil toxicity severity score for a patient receiving 5-fluorouracil, comprising calculating the square root of the sum of: (a) the square of the logarithm of the dose of 5-fluorouracil administered to the patient; and (b) the square of the logarithm of the administration rate of the 5-fluorouracil to the patient.
The severity score can be represented by the following equation:
Severity Score=[(log Dose)^2+(log Rate)^2]^1/2
Typically the logarithm is a base-ten logarithm (log10):
ti Severity Score=[(log10 Dose)^2+(log10 Rate)^2]^1/2
In accordance with this invention the dose and the dose rate can be expressed in any units, including all units that are conventional for expressing drug doses and dose rates. […] Whether they should receive vistonuridine should be evaluated on a case-by-case basis by the patient's physician. When units other than milligrams and mg/hr are utilized or a power relationship other than log10 is utilized in the calculation, the severity score will have a different numerical value and the skilled artisan can readily calculate the corresponding cut-offs distinguishing among lethal, seriously toxic but nonlethal, and nontoxic, doses. […]

The conditions of data set [5]: cited from earlier work. This is another data set of the same source.

Consider `CC(=O)OC[C@H]1O[C@@H](n2ccc(=O)[nH]c2=O)[C@H](OC(C)=O)[C@@H]1OC(C)=O` [Vistonuridine, 2′,3′,5′-tri-O-acetyluridine], for which the “Outcome of all 17 overdose patients treated with vistonuridine” value in the data set on 5FU overdose [1] (17 patients, most with relatively modest toxicity) is “recovered fully”. For the same molecule, the “Time after 5FU overdose at which the antidote is still effective” value with 5FU overdose [1] (humans) is no less than 96 h. In the data set on 5FU overdose [1] (individual 5FU overdose patient, vistonuridine 10 g q6 hr for 20 doses beginning 8 to 96 hours after the 5FU overdose), the “Observed Outcome” value was “Recovered”. In addition, the “Time after lethal 5FU overdose at which the antidote is still effective” value with lethal 5FU overdose is no less than 48 h.
For the molecule `O=c1[nH]cc(F)c(=O)[nH]1` [5FU, 5-Fluorouracil], the “Patients receiving 5FU who will develop a toxic reaction” value in data set [2] (about 275,000 US cancer patients receive 5FU annually, NIH estimate) is reported as “about 3%”. The “Patients who die each year from 5FU overexposure” value in data set [2] (human, in vivo) is “more than 1300 patients”. Moreover, in the data set with 5FU overdose [3] (11 cases, available supportive care, no vistonuridine), the “Outcome of the 11 literature-reported 5FU overdose cases with predicted death” value is “die from the overdose”. The “Observed Outcome” value in the data set with 5FU overdose [3] (individual 5FU overdose patient, best supportive care without vistonuridine) is “Death; also recorded: Recovered”. The “Severity score that indicates a lethal dose” value in data set [4] is no less than 4.5.
Regarding `O=c1ccn([C@@H]2O[C@H](CO)[C@@H](O)[C@H]2O)c(=O)[nH]1` [uridine, Uridine], the Oral bioavailability result in data set [5] is on record as “about 7%”.
